Holding throughout (type): cell-based, Streptococcus pneumoniae
In experiment [1] the test system is S Pneumoniae 14319. As to the kind of experiment: MIC against resistant S Pneumoniae strain 14319.
For experiment [2], the system named is S Pneumoniae 410101. In words: MIC against resistant S Pneumoniae strain 410101.
Experiment [3] concerns S Pneumoniae N1387. In words: MIC against resistant S Pneumoniae strain N1387.
Setting [4] is: Streptococcus pneumoniae, read-out: MIC.

≈ marks a conversion by molar mass, not a printed value. Like-named read-outs stand apart in the source and are kept apart here.

In the case of `CC1(C)S[C@@H]2[C@H](NC(=O)[C@H](N)c3ccc(O)cc3)C(=O)N2[C@H]1C(=O)O` [Amoxycillin], the MIC in experiment [1] (setting [4]) amounted to 4 µg/mL (≈ 10.9 µM); in experiment [2] (setting [4]), 4 µg/mL (≈ 10.9 µM); in experiment [3] (setting [4]), 2 µg/mL (≈ 5.47 µM).
In the case of `CC1(C)S[C@@H]2[C@H](NC(=O)Cc3ccccc3)C(=O)N2[C@H]1C(=O)O` [Penicillin G], the results for the minimal inhibitory concentration (MIC) in experiment [1], in experiment [2] and in experiment [3] were 8 µg/mL (≈ 23.9 µM), 4 µg/mL (≈ 12 µM) and 2 µg/mL (≈ 5.98 µM), respectively.

As a reminder, the MIC is the lowest concentration found to suppress growth.

Source of the values: patent US6726908B2, “Pharmaceutical formulation” (SmithKline Beecham p.l.c., priority 1995, dated 2004).
